# According to publication PMC9929232, “On-demand male contraception via acute inhibition of soluble adenylyl cyclase” (Nature Communications, 2023):
# Experiments:
# [1] = TDI-11155 blood concentration during osmotic minipump delivery; assay type: in vivo, mouse
# Protocol: (§1) At defined time points (15 min to 24 hours post-injection), 10 μl tail blood was progressively collected from the same males, mixed with 20 μl 15 mM EDTA, frozen in liquid nitrogen, and stored at −80 °C until analysis. Liver, kidney, eye, testis, caput and cauda epididymis, and seminal vesicle were collected, weighed, and homogenized in a threefold volume of 1:1 EtOH/H2O (v/v). […] Mice anesthetized with ketamine/xylazine were shaved and residual hair was removed with hair removal cream. A small incision was made with a scalpel, a hemostat was used to create a pump-size pocket under the skin, and the pump was inserted with the pump opening facing away from the incision. After the wound was closed, mice were treated with meloxicam for pain relief. For 7 or 42 days post-surgery, tail blood was collected at regular intervals.
# [2] = system: testis, epididymis, kidneys, eyes, liver, spleen, pancreas; settings: mouse, in vivo
# Protocol: as §1
# Blinded histopathological evaluation of indicated organs (testis, epididymis, kidneys, eyes, liver, spleen, and pancreas) was performed by a board-certified comparative pathologist at the WCM Laboratory of Comparative Pathology. […] Organs were fixed in 10% neutral buffered formalin followed by embedding into paraffin. Sections were cut followed by staining with hematoxylin and eosin (H&E) for microscopic evaluation.
# [3] = molecular target: T1, sAC-overexpressing rat 4-4 cells (Rattus norvegicus, UniProt Q9Z286); set-up: method as in PMID 36246105; settings: read-out: IC50 in cellular assays; cited from earlier work
# T1 construct: expressed in transfected cells
# T1 sequence (Q9Z286 1-469 limits assumed): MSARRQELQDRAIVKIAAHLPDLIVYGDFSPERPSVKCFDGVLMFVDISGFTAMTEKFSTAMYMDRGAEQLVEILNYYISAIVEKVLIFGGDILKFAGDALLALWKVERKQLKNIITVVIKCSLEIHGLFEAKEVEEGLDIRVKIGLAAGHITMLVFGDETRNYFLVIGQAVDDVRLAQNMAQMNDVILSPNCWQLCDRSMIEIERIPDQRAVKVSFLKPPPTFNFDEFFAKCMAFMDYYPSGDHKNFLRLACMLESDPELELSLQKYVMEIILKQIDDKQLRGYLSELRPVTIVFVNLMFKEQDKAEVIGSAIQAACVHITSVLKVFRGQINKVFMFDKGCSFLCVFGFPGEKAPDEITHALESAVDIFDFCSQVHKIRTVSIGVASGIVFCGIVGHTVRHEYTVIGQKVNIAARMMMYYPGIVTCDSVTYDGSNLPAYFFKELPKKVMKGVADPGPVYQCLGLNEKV
smiles,measurement,setting,value
Cn1cc(Cc2ccccc2OCCN2CCOCC2)c(-c2cc(Cl)nc(N)n2)n1 [TDI-11155],delivered level relative to cellular IC50,[1]; 7 days,15 fold
same,delivered level relative to cellular IC50,[1]; 42 days,threefold
same,Epididymis: Epithelial karyomegaly,[2],"2, MF"
same,Epididymis: Exfoliated germ cells,[2],"1, MF"
same,Eyes,[2],N
same,"Kidneys: Lymphoplasmacytic and histiocytic infiltrates, pelvic",[2],"1, MF"
same,"Kidneys: Tubular basophilia, cortical",[2],"1, F"
same,"Kidneys: Tubular mineralization, papillary",[2],"1, F"
same,"Liver: Extramedullary hematopoiesis, random",[2],"1, MF"
same,"Liver: Lymphoplasmacytic, histiocytic, and neutrophilic hepatitis, midzonal",[2],"1, F"
same,"Liver: Lymphoplasmacytic, histiocytic, and neutrophilic hepatitis, periportal",[2],"2, F"
same,Pancreas,[2],N
same,Spleen,[2],N
same,behavioral effects during treatment,[2],no observed behavioral effects
same,gross abnormalities in major organs at study termination,[2],no gross abnormalities
same,salt precipitation in kidneys,[2],no signs of salt precipitation
same,IC50,[3],16 nM
